This passage reports LC retention time results from the RepoRT retention time repository (doi:10.1016/j.jchromb.2020.122105).

What all share (details): stereoisomer not certain
A short description of data set [1]: HILIC, Waters XBridge BEH Amide, 100 × 2.1 mm, 2.5 µm, 0.5 mL/min, estimated dead time 0.44 min; A: water + 0.1% acetic acid + 10 mM ammonium acetate, pH 4; B: 5% water + 95% acetonitrile + 0.1% acetic acid + 10 mM ammonium acetate, pH 4; gradient (min/%B) 0/95 5/95 20/57 25/57 30/95 40/95.
A short description of data set [2]: RP, Waters CORTECS T3, 100 × 2.1 mm, 2.7 µm, 0.3 mL/min, estimated dead time 0.73 min; A: water + 0.1% formic acid, pH 3; B: methanol + 0.1% formic acid, pH 3; gradient (min/%B) 0/5 5/5 25/95 25.1/100 35/100 35.1/5 45/5.
Data set [3] in a line: RP, Waters CORTECS T3, 100 × 2.1 mm, 2.7 µm, 0.3 mL/min, estimated dead time 0.73 min; A: water + 0.1% formic acid, pH 3; B: methanol + 0.1% formic acid, pH 3; gradient (min/%B) 0/5 5/5 25/100 30/100 30.1/5 35/5.
Data set [4] in a line: RP, Waters CORTECS T3, 100 × 2.1 mm, 2.7 µm, 0.15 mL/min, estimated dead time 1.5 min; A: water + 0.1% formic acid, pH 3; B: methanol + 0.1% formic acid, pH 3; gradient (min/%B) 0/0 1/0 6/5 30/100 35/100 35.1/0 40/0.
Data set [5] can be described thus: RP, Waters ACQUITY UPLC BEH C18, 100 × 2.1 mm, 1.7 µm, 0.1 mL/min, estimated dead time 2.2 min; A: water + 0.1% formic acid, pH 3; B: methanol + 0.1% formic acid, pH 3; gradient (min/%B) 0/5 5/5 25/95 25.1/100 35/100 35.1/5 45/5.
Data set [6] is described as follows: RP, Waters CORTECS T3, 100 × 2.1 mm, 2.7 µm, 0.2 mL/min, estimated dead time 1.1 min; A: water + 0.1% formic acid, pH 3; B: methanol + 0.1% formic acid, pH 3; gradient (min/%B) 0/5 5/5 25/95 25.1/100 35/100 35.1/5 45/5.
Data set [7] in a line: RP, Waters ACQUITY UPLC BEH C18, 100 × 2.1 mm, 1.7 µm, 0.1 mL/min, estimated dead time 2.2 min; A: water + 0.1% formic acid, pH 3; B: methanol + 0.1% formic acid, pH 3; gradient (min/%B) 0/5 5/5 25/95 25.1/100 35/100 35.1/5 45/5. The source holds these as a separate data set.
Data set [8] can be described thus: RP, Waters CORTECS T3, 100 × 2.1 mm, 2.7 µm, 0.3 mL/min, estimated dead time 0.73 min; A: water + 0.1% formic acid, pH 3; B: methanol + 0.1% formic acid, pH 3; gradient (min/%B) 0/0 1/0 6/5 30/100 35/100 35.1/0 40/0.
Data set [9] is described as follows: RP, Waters ACQUITY UPLC BEH C18, 100 × 2.1 mm, 1.7 µm, 0.1 mL/min, estimated dead time 2.2 min; A: water + 0.1% formic acid, pH 3; B: methanol + 0.1% formic acid, pH 3; gradient (min/%B) 0/5 5/5 25/95 25.1/100 35/100 35.1/5 45/5. This is another data set of the same source.
Data set [10] in a line: RP, Waters ACQUITY UPLC BEH C18, 100 × 2.1 mm, 1.7 µm, 0.1 mL/min, estimated dead time 2.2 min; A: water + 0.1% formic acid, pH 3; B: methanol + 0.1% formic acid, pH 3; gradient (min/%B) 0/5 5/5 25/100 30/100 30.1/5 35/5.
Data set [11] is described as follows: RP, Waters CORTECS T3, 100 × 2.1 mm, 2.7 µm, 0.2 mL/min, estimated dead time 1.1 min; A: water + 0.1% formic acid, pH 3; B: methanol + 0.1% formic acid, pH 3; gradient (min/%B) 0/0 1/0 6/5 30/100 35/100 35.1/0 40/0.
Data set [12] is described as follows: RP, Waters CORTECS T3, 100 × 2.1 mm, 2.7 µm, 0.3 mL/min, estimated dead time 0.73 min; A: water + 0.1% formic acid, pH 3; B: methanol + 0.1% formic acid, pH 3; gradient (min/%B) 0/0 5/0 25/100 30/100 30.1/0 35/0.
A short description of data set [13]: RP, Waters CORTECS T3, 100 × 2.1 mm, 2.7 µm, 0.25 mL/min, estimated dead time 0.88 min; A: water + 0.1% formic acid, pH 3; B: methanol + 0.1% formic acid, pH 3; gradient (min/%B) 0/0 1/0 6/5 30/100 35/100 35.1/0 40/0.
The nature of data set [14]: RP, Waters CORTECS T3, 100 × 2.1 mm, 2.7 µm, 0.1 mL/min, estimated dead time 2.2 min; A: water + 0.1% formic acid, pH 3; B: methanol + 0.1% formic acid, pH 3; gradient (min/%B) 0/5 5/5 25/95 25.1/100 35/100 35.1/5 45/5.
A short description of data set [15]: RP, Waters CORTECS T3, 100 × 2.1 mm, 2.7 µm, 0.3 mL/min, estimated dead time 0.73 min; A: water + 0.1% formic acid, pH 3; B: methanol + 0.1% formic acid, pH 3; gradient (min/%B) 0/0 1/0 6/5 30/100 35/100 35.1/0 40/0. This is another data set of the same source.
Data set [16] in a line: RP, Waters CORTECS T3, 100 × 2.1 mm, 2.7 µm, 0.2 mL/min, estimated dead time 1.1 min; A: water + 0.1% formic acid, pH 3; B: methanol + 0.1% formic acid, pH 3; gradient (min/%B) 0/0 1/0 6/5 30/100 35/100 35.1/0 40/0. This is another data set of the same source.
A short description of data set [17]: RP, Waters ACQUITY UPLC BEH C18, 100 × 2.1 mm, 1.7 µm, 0.2 mL/min, estimated dead time 1.1 min; A: water + 0.1% formic acid, pH 3; B: methanol + 0.1% formic acid, pH 3; gradient (min/%B) 0/5 5/5 25/100 30/100 30.1/5 35/5.
Data set [18] is described as follows: RP, Waters ACQUITY UPLC BEH C18, 100 × 2.1 mm, 1.7 µm, 0.2 mL/min, estimated dead time 1.1 min; A: water + 0.025% formic acid + 20 mM ammonium acetate + 0.055% ammonium hydroxide, pH 7; B: methanol; gradient (min/%B) 0/5 5/5 25/100 30/100 30.1/5 35/5.
Data set [19] in a line: HILIC, Merck SeQuant ZIC-HILIC, 150 × 2.1 mm, 5 µm, 0.75 mL/min, estimated dead time 0.44 min; A: water + 0.1% acetic acid + 10 mM ammonium acetate, pH 4; B: 5% water + 95% acetonitrile + 0.1% acetic acid + 10 mM ammonium acetate, pH 4; gradient (min/%B) 0/95 5/95 20/57 25/57 30/95 40/95.
Data set [20] is described as follows: RP, Waters CORTECS T3, 100 × 2.1 mm, 2.7 µm, 0.25 mL/min, estimated dead time 0.88 min; A: water + 0.1% formic acid, pH 3; B: methanol + 0.1% formic acid, pH 3; gradient (min/%B) 0/5 5/5 25/95 25.1/100 35/100 35.1/5 45/5.
Data set [21] can be described thus: RP, Waters CORTECS T3, 100 × 2.1 mm, 2.7 µm, 0.1 mL/min, estimated dead time 2.2 min; A: water + 0.1% formic acid, pH 3; B: methanol + 0.1% formic acid, pH 3; gradient (min/%B) 0/0 1/0 6/5 30/100 35/100 35.1/0 40/0.
A short description of data set [22]: RP, Waters ACQUITY UPLC BEH C18, 100 × 2.1 mm, 1.7 µm, 0.2 mL/min, estimated dead time 1.1 min; A: water + 0.025% formic acid + 20 mM ammonium acetate + 0.055% ammonium hydroxide, pH 7; B: methanol; gradient (min/%B) 0/5 5/5 25/100 30/100 30.1/5 35/5. This is another data set of the same source.
Data set [23] in a line: RP, Waters CORTECS T3, 100 × 2.1 mm, 2.7 µm, 0.2 mL/min, estimated dead time 1.1 min; A: water + 0.045% formic acid + 0.11% ammonium hydroxide, pH 7; B: methanol; gradient (min/%B) 0/5 5/5 25/95 25.1/100 35/100 35.1/5 45/5.
The nature of data set [24]: RP, Waters CORTECS T3, 100 × 2.1 mm, 2.7 µm, 0.3 mL/min, estimated dead time 0.73 min; A: water + 0.1% formic acid, pH 3; B: methanol + 0.1% formic acid, pH 3; gradient (min/%B) 0/0 5/0 25/100 30/100 30.1/0 35/0. This is another data set of the same source.
A short description of data set [25]: RP, Waters ACQUITY UPLC BEH C18, 100 × 2.1 mm, 1.7 µm, 0.1 mL/min, estimated dead time 2.2 min; A: water + 0.045% formic acid + 0.11% ammonium hydroxide, pH 7; B: methanol; gradient (min/%B) 0/5 5/5 25/95 25.1/100 35/100 35.1/5 45/5.
A short description of data set [26]: HILIC, Merck SeQuant ZIC-HILIC, 150 × 2.1 mm, 5 µm, 0.75 mL/min, estimated dead time 0.44 min; A: water + 10 mM ammonium formate, pH 6; B: 5% water + 95% acetonitrile + 10 mM ammonium formate, pH 6; gradient (min/%B) 0/95 5/95 20/57 25/57 30/95 40/95.
The nature of data set [27]: RP, Thermo Scientific Hypercarb, 150 × 2.1 mm, 5 µm, 0.1 mL/min, estimated dead time 3.3 min; A: water + 0.1% formic acid, pH 3; B: methanol + 0.1% formic acid, pH 3; gradient (min/%B) 0/5 5/5 20/100 35/100 35.1/5 45/5.

Regarding `Nc1nc2c(ncn2C2OC3COP(=O)(O)OC3C2O)c(=O)[nH]1` (stereo not drawn) [GUANOSINE 3',5'-CYCLIC MONOPHOSPHATE], the LC retention time in data set [1] is 12.3 min; in [2], 2.59 min; in [3], 2.67 min; in data set [4] it was 9.04 min; in [5], 7.13 min; in data set [6] it was 11.1 min. The LC retention time in data set [7] was 2.72 min; in data set [8], 5.42 min; in data set [9], 6.68 min; in data set [10], 7.01 min; in [11] it was 7.35 min; in [12], 6.99 min. For the same compound, the LC retention time was 6.2 min in data set [13]; 7.41 min in data set [14]; 5.71 min in [15]; 7.21 min in [16]; 3.76 min in data set [17]; 1.41 min in [18]. In addition, the LC retention time was 12.3 min in data set [19], 3.22 min in data set [20] and 3.77 min in data set [21].

As to `CSCC1OC(n2cnc3c(N)ncnc32)C(O)C1O` (stereo not drawn) [5'-METHYLTHIOADENOSINE], the LC retention time is 1.61 min in data set [1]; 12.1 min in data set [22]; 8.59 min in data set [2]; 8.5 min in data set [3]; 12.6 min in data set [4]; 13.1 min in data set [7]. For the same compound, the LC retention time in data set [8] is 10.1 min; in data set [9] it was 13.1 min; in data set [10] it was 12.9 min; in [23], 12.3 min; in data set [13] it was 10.7 min; in [24], 9.9 min. The LC retention time is 13 min in data set [14]; 15.4 min in data set [25]; 11.3 min in data set [16]; 1.23 min in data set [19]; 1.29 min in [26]; 9.84 min in [21].

With `Cn1cnc2c(ncn2C2OC(CO)C(O)C2O)c1=N` (stereo not drawn) [1-METHYLADENOSINE], the LC retention time was 2.22 min in [1]; 10.5 min in [22]; 4.96 min in [2]; 5.02 min in data set [3]; 10.7 min in data set [4]; 2.66 min in data set [7]. The LC retention time in data set [8] is 8.04 min; in data set [9], 10.6 min; in data set [10], 10.5 min; in data set [23] it was 10.7 min; in data set [13], 8.69 min; in data set [24] it was 8.57 min. Further, the LC retention time was 10.9 min in data set [14]; 13.5 min in data set [25]; 9.42 min in data set [16]; 21.8 min in data set [27]; 1.51 min in data set [19]; 1.56 min in [26]. In addition, the LC retention time in data set [21] was 7.08 min.
